Experimental data from patent publication US10322074B2, “Apparatus and method for preparing cosmeceutical ingredients containing epi-dermal delivery mechanisms” (PPP&C INC., priority 2015, dated 2019).

Assay: Phase behavior and solubility of lipid in dense CO2 / threshold pressure for precipitation
Assay type: physicochemical
Description: Prior to liposome or niosome formation, the phase behavior and solubility of the chosen lipid in dense CO2 were investigated to verify the suitability of the lipid for dense gas processing and, in particular LPLTVs processing.
Knowledge of the threshold pressure for precipitation of lipid from solution is also a key factor for design of the LPLTVs process in order to determine the maximum pressure for the technique so that yield is enhanced and loss of lipid in the expansion chamber minimized. The solid state of 1,2 distearoyl-sn-glycero-3-phosphocholine (DSPC) was maintained when the lipid was exposed to CO2 below 350 bar at 50° C. and 150 bar at 70° C. The solubility of DSPC in pure CO2 at 50° C. and pressures up to 280 bar was considered negligible. […] Use of higher pressures or larger amounts of organic solvent are undesirable, thus the results of the solubility study are in agreement with the literature in concluding that effects arising from poor solubility of lipids in dense CO2 are not easily overcome.
In prior art, at 50° C. and 250 bar, DSPC required the addition of 4.8% v/v ethanol as well as the use of a recycling system for homogeneous dissolution of the lipid in CO2. In the current embodiment, the use of the LPLTVs process eliminates the current limitations of dense gas techniques associated with solubilizing lipids using a supercritical fluid and simply utilizes a dense gas as an aerosolization aid. The threshold pressure for the precipitation of DSPC from a 10 mg/mL ethanol solution at 22° C. was 55 bar.
Precipitation was first observed at 58, 55, and 56 bar for the 5, 10, and 20 mg/mL solutions of DSPC and cholesterol (70:30 lipid to cholesterol weight ratio) in ethanol at 22° C., respectively. Therefore it can be seen that cholesterol had negligible effect on the threshold pressure. […] A faster pressurization rate is preferable for the embodiments LPLTVs process in order to minimize the time requirement for each experiment. During this experiment, noticeable expansion only started to occur after 50 bar was reached. […]

CCCCCCCCCCCCCCCCCC(=O)OC[C@H](COP(=O)([O-])OCC[N+](C)(C)C)OC(=O)CCCCCCCCCCCCCCCCC [DSPC, 1,2 distearoyl-sn-glycero-3-phosphocholine]
threshold pressure for precipitation (10 mg/mL ethanol solution, 22° C.): 55 bar | effect of ethanol co-solvent on solubility in CO2 (5 mol % ethanol, 50° C., 250 bar): did not significantly improve | solubility in pure CO2 (50° C., pressures up to 280 bar): negligible
